Tests used:
PNH erythrocytes = experiment: CAP-mediated hemolysis assay with PNH erythrocytes (subject A); format: cell-based, human; settings: for inhibition at 0.0234 µM: Compound 1 0.0234 μM; for inhibition at 0.0469 µM: Compound 1 0.0469 μM; for inhibition at 0.0938 µM: Compound 1 0.0938 μM; for inhibition at 0.1875 µM: Compound 1 0.1875 μM; for inhibition at 0.188 µM: Compound 1 0.188 μM; for inhibition at 0.375 µM: Compound 1 0.375 μM; for inhibition at 0.75 µM: Compound 1 0.75 μM; for inhibition at 1.5 µM: Compound 1 1.5 μM
Method: Complement-preserved normal human serum (NHS) from an individual donor of ABO blood group type AB (NHS-AB) was purchase from BioreclamationIVT (Westbury, NY). Gelatin veronal buffer (GVB), pH 7.3, without Ca^++ and Mg^++ (GVB^0) and 100 mM MgCl2 +100 mM EGTA (MgEGTA) were obtained from Complement Technology Inc. (Tyler, TX).
GVB^0·MgEGTA was prepared by mixing GVB^0 and 100 mM MgEGTA in a 9:1 ratio. PNH erythrocytes were used within five days of blood collection; before assay cells were collected by centrifugation at 800×g and 4° C. for 3 minutes and resuspended in fresh cold GVB^0·MgEGTA to a density of 5×10^8 cells/mL.
50 μL of NHS-AB was added to each well. The plates were mixed and incubated at room temperature for 5 minutes. 24 μL of this NHS-AB with compound was then transferred to duplicate wells of V-bottom microtiter plates each containing 76 μL GVB0·MgEGTA. 20 μL PNH erythrocytes was then added to each well and the plates were sealed, mixed, and incubated at 37° C. for 30 minutes with an added shaking for 15 minutes. […] Following incubation, PNH cells were removed by centrifugation at 800×g and 4° C. for 3 minutes, 100 μL supernatant per well was transferred to flat-bottom clear microtiter plates, and A405 of the supernatant was measured in a Molecular Devices Spectramax Plus plate reader.
Combinatorial interactions were analyzed via two methods.
Inhibition was analyzed by the method of Prichard and Shipman (Prichard, M. N. and C. Shipman, Jr. A Three-Dimensional Model to Analyze Drug-Drug Interactions. Antiviral Research 1990, 14:181-205) Three-dimensional surface graphs of each experiment were generated and analyzed using an Excel spreadsheet program adapted from the MacSynergy II spreadsheet (University of Alabama, Birmingham, AL). The X-axis and Y-axis of each surface graph represent the concentrations of the two test compounds, and the Z-axis represents the difference between measured inhibition and a theoretically determined additive inhibition. For an additive relationship, the surface graph resembles a horizontal plane at Z=0, whereas positive surface peaks indicate greater inhibition than expected and therefore synergy, and negative surface peaks indicate less inhibition than expected and therefore antagonism.
Synergy and antagonism volumes were calculated separately as the summed volumes of peaks respectively above and below the Z=0 plane. Volumes were determined using 95% confidence limits to assure significance.
Inhibition was analyzed by the method of Chou and Talalay (Chou, T.-C. and P. Talalay. Analysis of Combined Drug Effects: A New Look at a Very Old Problem. Trends Pharmacol. Sci. 1983, 4:450-454; Chou, T. C. Theoretical basis, experimental design, and computerized simulation of synergism and antagonism in drug combination studies. Pharmacological Reviews 2006, 58:621-681). Analysis using the median-effect equation of Chou and Talalay was performed with CompuSyn software (ComboSyn, Inc, Paramus, NJ). […] Combination index (CI) values were determined at inhibition values of 50%, 75%, and 90%.

[1] = system: complement system alternative pathway; experiment: CAP Wieslab assay (CAP-mediated TCC production); format: biochemical, human; settings: AP activity in vitro
[2] = system: C3 fragment deposition on artificial PNH cells; experiment: C3 fragment deposition on artificial PNH cells (flow cytometry); format: cell-based; settings: 32% acidified C5-depleted normal human serum; read-out: IC50, inhibition of C3 fragment deposition on artificial PNH cells
Method: C5-depleted normal human serum (C5-Dpl NHS), gelatin veronal buffer (GVB) without Ca^++ and Mg^++ (GVB^0), 100 mM MgCl2+100 mM EGTA (MgEGTA) were obtained from Complement Technology Inc. (Tyler, TX). GVB^0·MgEGTA was prepared by mixing GVB^0 and 100 mM MgEGTA in a 9:1 ratio. FITC-conjugated anti-C3c antibody (cat #ab4212) and Alexa Fluor® 647-conjugated anti human CD59 antibody (cat #:ab187769) were purchased from Abcam (Cambridge, MA). […] Ferrone, and F. Mercuriali, The Action of Two Sulfhydryl Compounds on Normal Human Red Cells. Relationship to Red Cells of Paroxysmal Nocturnal Hemoglobinuria. Blood, 1965. 25: p. 502-10). After AET treatment, artificial PNH erythrocytes were centrifuged, supernatant was aspirated and cells were thoroughly washed with phosphate buffered saline (PBS) 3 times followed by washing with GVB^0 buffer ([…]) for additional 3 times. […] C3 fragment deposition on the surface of the erythrocytes was assessed by flow cytometry with BD Accuri C6 cytometer (BD Biosciences, San Jose, CA). […] IC50 values from each experiment were determined by curve-fitting of experimental data (the % C3 fragment-positive cells at increasing concentrations of inhibitor) to the four-parameter sigmoidal dose-response equation using non-linear regression analysis (Prism Software, GraphPad, La Jolla, CA).

[3] = Homo sapiens, Erythrocyte, Experiment 2, Eculizumab 0-400 μg/mL
[4] = Homo sapiens, Erythrocyte, Experiment 2, Compstatin 0-300 μM
[5] = Homo sapiens, Erythrocyte, Experiment #1, Compstatin 0-300 μM
[6] = Homo sapiens, Erythrocyte, Experiment #1, Eculizumab 0-400 μg/mL

For `CC(=O)c1nn(CC(=O)N2C[C@H](F)C[C@H]2C(=O)Nc2cccc(Br)n2)c2ccc(-c3cnc(C)nc3)cc12` [Compound 1, (2S,4R)-1-(2-(3-acetyl-5-(2-methylpyrimidin-5-yl)-1H-indazol-1-yl)acetyl)-N-(6-bromopyridin-2-yl)-4-fluoropyrrolidine-2-carboxamide], the inhibition at 0.0234 µM (PNH erythrocytes; [3]) was 0%, the inhibition at 0.0469 µM (PNH erythrocytes; [3]) was 0% and the inhibition at 0.0938 µM (PNH erythrocytes; [4]) was 0%. For the same molecule, the inhibition at 0.0938 µM (PNH erythrocytes; [3]) was 0%, the inhibition at 0.1875 µM (PNH erythrocytes; [4]) was 6% and the inhibition at 0.188 µM (PNH erythrocytes; [3]) was 7%. The inhibition at 0.375 µM (PNH erythrocytes; [4]) was 27%, the inhibition at 0.375 µM (PNH erythrocytes; [3]) was 27% and the inhibition at 0.75 µM (PNH erythrocytes; [4]) was 65%. It also gave an inhibition at 0.75 µM (PNH erythrocytes; [3]) of 42%, an inhibition at 1.5 µM (PNH erythrocytes; [4]) of 90% and an inhibition at 1.5 µM (PNH erythrocytes; [3]) of 77%. It also gave an inhibition at 3 µM (PNH erythrocytes; Homo sapiens, Erythrocyte, Experiment 2, Compound 1 3 μM, Compstatin 0-300 μM) of 97%, an inhibition at 6 µM (PNH erythrocytes; Homo sapiens, Erythrocyte, Experiment 2, Compound 1 6 μM, Compstatin 0-300 μM) of 97% and an inhibition at 0.0234 µM (PNH erythrocytes; [5]) of 0%. The inhibition at 0.0234 µM (PNH erythrocytes; [6]) was 4%, the inhibition at 0.0469 µM (PNH erythrocytes; [5]) was 0% and the inhibition at 0.0469 µM (PNH erythrocytes; [6]) was 2%. For the same molecule, the inhibition at 0.0938 µM (PNH erythrocytes; [5]) was 0%, the inhibition at 0.0938 µM (PNH erythrocytes; [6]) was 6% and the inhibition at 0.1875 µM (PNH erythrocytes; [5]) was 11%. It also gave an inhibition at 0.188 µM (PNH erythrocytes; [6]) of 14%, an inhibition at 0.375 µM (PNH erythrocytes; [5]) of 19% and an inhibition at 0.375 µM (PNH erythrocytes; [6]) of 24%. It also gave an inhibition at 0.75 µM (PNH erythrocytes; [5]) of 51%, an inhibition at 0.75 µM (PNH erythrocytes; [6]) of 55% and an inhibition at 1.5 µM (PNH erythrocytes; [5]) of 80%. The inhibition at 1.5 µM (PNH erythrocytes; [6]) was 86%, the IC50 (PNH erythrocytes; Homo sapiens, Erythrocyte, AP activity in vitro) was 14 nM and the “inhibition at the high end of the test concentration ranges” value (PNH erythrocytes; single agent, PNH erythrocytes) was “complete inhibition”. The IC50 [1] was 26 nM and the IC50 [2] was 27 nM.
